# Tests used:
# [1] = tested on: intraperitoneal eosinophilia; assay: Action on intraperitoneal eosinophilia model mice (sensitized with swine roundworm extract); format: in vivo, BALB/c male mice; details: oral, once a day, 10 times, BALB/c mice
# Method: Using five animals per group of BALB/c male mice (about 25 g in body weight), 0.11 mL of physiological saline containing 0.1 mg of swine roundworm extract was administered into the peritoneal cavity of each mouse to sensitize. The same treatment was repeated 7 days after the administration and, 3 days thereafter, each animal was sacrificed by phlebotomy, 3 mL of physiological saline containing 1% dipotassium ethylenediaminetetraacetate (EDTA) was administered by intraperitoneal injection and its abdominal region was massaged for about 30 seconds. The abdominal region was incised to collect intraperitoneal fluid which was subsequently centrifuged at 130 x g for 10 minutes, and the resulting precipitate was mixed with 500 µl of fetal calf serum containing 1% EDTA to prepare a cell suspension. A portion of the cell suspension was daubed on a slide glass using a spinner to carry out Diff-Quik staining, and then total leukocytes and eosinophils were counted to calculate the ratio of eosinophils in the total leukocytes. The number of total leukocytes in the cell suspension was measured using an automatic blood cell counter. The number of eosinophils in the cell suspension was calculated by multiplying the ratio of eosinophils in the total leukocytes by the number of total leukocytes.
# Each of the compounds to be tested was suspended in 5% acacia aqueous solution and orally administered once a day for a total of 10 times starting immediately after the initial sensitization (test compound-administered group). Also, 5% acacia aqueous solution was orally administered to a group of mice in which sensitization and administration of test compounds were not carried out (non-treated group) and another group of mice in which sensitization was carried out but test compounds were not administered (control group).
# The dose of each compound to be tested and the intraperitoneal eosinophilia inhibition rate calculated by the following formula are shown in Table 1. Eosinophilia inhibition rate (%) = {1 - (test compound- administered group - non-treated group)/(control group - non- treated group)} x 100 [formula]
# [2] = tested on: BALB/c male mice; details: mouse, in vivo, po, 100 mg/kg/day
# Text: Toxicity of compounds of the present invention was examined.
compound,measurement,setting,value
"COC(=O)CC(=O)c1cccc2nc(CCc3ccccc3)[nH]c12 [Example 2, methyl 3-(2-(2-phenylethyl)benzimidazol-4-yl)-3-oxopropanoate]",Intraperitoneal eosinophilia inhibition rate (%),[1]; dose 100 mg/kg/day,42%
same,mortal case,[2],no mortal case was found
"CC(=O)OCC(=O)[C@@]1(O)CC[C@H]2[C@@H]3CCC4=CC(=O)C=C[C@]4(C)[C@H]3[C@@H](O)C[C@@]21C [Prednisolone acetate, 11β,17α,21-trihydroxypregna-1,4-diene-3,20-dione 21-acetate, reference compound]",Intraperitoneal eosinophilia inhibition rate (%),[1]; dose 10 mg/kg/day,61 - 85%
"O=C(O)CC(O)c1cccc2nc(CCc3ccccc3)[nH]c12 (stereo not drawn) [Example 7, 3-(2-(2-phenylethyl)benzimidazol-4-yl)-3-hydroxypropanoic acid]",Intraperitoneal eosinophilia inhibition rate (%),[1]; dose 0.3 mg/kg/day,55%
same,mortal case,[2],no mortal case was found
"COC(=O)CC(O)c1cccc2nc(CCc3ccccc3)[nH]c12 (stereo not drawn) [Example 5, methyl 3-(2-(2-phenylethyl)benzimidazol-4-yl)-3-hydroxypropanoate]",Intraperitoneal eosinophilia inhibition rate (%),[1]; dose 100 mg/kg/day,62%
same,mortal case,[2],no mortal case was found
"CCOC(=O)CC(=O)c1cccc2c1nc(CCc1ccccc1)n2C [Example 10, ethyl 3-(1-methyl-2-(2-phenylethyl)benzimidazol-4-yl)-3-oxopropanoate]",mortal case,[2],no mortal case was found
"CCOC(=O)CC(=O)c1cccc2nc(CCc3ccccc3)[nH]c12 [Example 3, ethyl 3-(2-(2-phenylethyl)benzimidazol-4-yl)-3-oxopropanoate]",Intraperitoneal eosinophilia inhibition rate (%),[1]; dose 10 mg/kg/day,67%
same,Intraperitoneal eosinophilia inhibition rate (%),[1]; dose 30 mg/kg/day,75%
"CCOC(=O)CC(O)c1cccc2nc(CCc3ccccc3)[nH]c12 (stereo not drawn) [Example 6, ethyl 3-(2-(2-phenylethyl)benzimidazol-4-yl)-3-hydroxypropanoate]",Intraperitoneal eosinophilia inhibition rate (%),[1]; dose 3 mg/kg/day,35%
same,Intraperitoneal eosinophilia inhibition rate (%),[1]; dose 10 mg/kg/day,59%
"O=C(O)CC(=O)c1cccc2nc(CCc3ccccc3)[nH]c12 [Example 1, 3-(2-(2-phenylethyl)benzimidazol-4-yl)-3-oxopropanoic acid]",Intraperitoneal eosinophilia inhibition rate (%),[1]; dose 3 mg/kg/day,67%
same,Intraperitoneal eosinophilia inhibition rate (%),[1]; dose 30 mg/kg/day,78%
same,mortal case,[2],no mortal case was found

# From patent EP0936218B1, “BENZIMIDAZOLE DERIVATIVES” (MOCHIDA PHARMACEUTICAL CO., LTD., priority 1996, dated 1998)
